In brackets after ≈: the same amount, converted by molar mass. Read-outs that look alike come from different tables or passages of the source. Where a SMILES comes first, the peptide text is derived from it.
Experiments:
trypsin = settings: peptide:protease 40:1, 37° C., 1 hour
Method: A solution of peptide/protease (40:1 molar ratio) was made in phosphate-buffered saline (PBS; pH 7.1, Gibco, NY) and incubated at 37° C. for 1 hour. As controls, peptides without proteases were also incubated in the same manner. Then, aliquots of 10 μL were transferred to a 96-well polystyrene microplate and mixed with the exponential-phase MRSA USA300 culture as performed in the antibacterial activity assays above.

chymotrypsin = target: T1, chymotrypsin (Bos taurus, UniProt P00766); format: in vitro ADME, mammalian
T1 construct: purchased Thermo Fisher Scientific

pepsin = target: T2, pepsin (Sus scrofa, UniProt P00791); format: in vitro ADME, mammalian
T2 construct: purchased Thermo Fisher Scientific

S. aureus USA300 LAC = experiment: microbe, parasite or virus in culture; format: cell-based, Staphylococcus aureus; settings: for Antimicrobial activity (MIC): MRSA in MHB
Outline: (§1)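 Broth microdilution with twofold peptide dilutions, using exponential-phase bacteria at about 10^5 CFU/mL in MHB, incubated overnight at 37 °C and read at OD600. MIC, reported as a range, is the peptide concentration with no growth. Some tests used diluted MHB/TSB/LB, adjusted pH, or added NaCl or human serum.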

S. epidermidis 1457 = experiment: microbe, parasite or virus in culture; format: cell-based, Staphylococcus epidermidis
Outline: (§2)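 Peptides twofold serially diluted against exponential-phase resistant clinical isolates at ~10^5 CFU/mL in MHB (also diluted MHB, TSB or LB in one protocol), CLSI-based broth microdilution. Incubated overnight at 37° C., OD 600 nm read; MIC taken as lowest concentration without growth, reported as ranges.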

K. pneumoniae E406-17 = format: cell-based, Klebsiella pneumoniae
Method: The following resistant bacterial clinical strains were used in this study: S. aureus USA300 LAC, S. epidermidis 1457, E. coli E423-17, P. aeruginosa E411-17, K. pneumoniae E406-17, and A. baumannii B28-16. While the S. aureus USA300 strain is methicillin-resistant, most of the Gram-negative bacteria contain extended-spectrum beta-lactamase and are resistant to beta-lactam antibiotics. Peptide activity against bacteria was tested using an established lab protocol (Mishra, et al. (2017) Acta Biomater., 49:316-328). In brief, a peptide concentration gradient with twofold dilution was made in the 96-well polystyrene microplate at 10 μL per well. Bacteria were grown to the exponential phase (i.e., optical density at 600 nm≈0.5), diluted to ˜10^5 CFU/mL in different percentages of MHB, TSB, or LB, and partitioned into the 96-well microplate at 90 μL per well. […] They were diluted with autoclaved distilled water to obtain different percentages. The microplates were incubated at 37° C. overnight and read on a ChroMate™ 4300 microplate reader at 600 nm (GMI, Ramsey, MN). The peptide concentration in the wells without bacterial growth is the MIC. As is the convention, MIC values were represented as ranges.
(§3) Peptide activity against bacteria were tested using the CLSI standard procedure with minor modifications (Clinical and Laboratory Standards Institute (2018) Performance standards for antimicrobial susceptibility testing, 9th ed.; Mishra, et al. (2019) Proc. Natl. Acad. Sci., 116(27):13517-13522). In brief, a peptide concentration gradient with twofold dilution was made in the 96-well polystyrene microplate at 10 μL per well. Bacteria were grown to the exponential phase (i.e., optical density at 600 nm≈0.5), diluted to ˜10^5 CFU/mL in MHB, and partitioned into the 96-well microplate at 90 μL per well. The microplates were incubated at 37° C. overnight and read on a ChroMate® 4300 Microplate Reader at 600 nm (GMI, Ramsey, MN). The peptide concentration in the wells without bacterial growth is the minimal inhibitory concentration (MIC). As the convention, MIC values were represented as ranges.

A. baumannii B28-16 = format: cell-based, Acinetobacter baumannii; settings: B28-16
Outline: as §2

P. aeruginosa E411-17 = experiment: microbe, parasite or virus in culture; format: cell-based, Pseudomonas aeruginosa; settings: E411-17
Outline: as §1

E. coli E416-17 = format: cell-based, Escherichia coli
Method: as §3

human red blood cells = experiment: Hemolytic assay; format: cell-based
Method: The hemolytic effects of peptides were evaluated using a method with minor modifications (Lakshmaiah Narayana, et al. (2021) ACS Infect. Dis., 7:1795-1808). Human red blood cells (hRBCs, UNMC Blood Bank) were washed (3×) with blood bank saline (isotonic solution 0.90% w/v, Fisher). Cells were diluted to 2% using the saline solution, and aliquots of 90 μL were added to a 96-well polystyrene microplate containing 10 μL of serially diluted peptide solutions. After incubation at 37° C. for 1 hour, plates were centrifuged at 500 g for 5 minutes. Aliquots of the supernatant were transferred to a 96-well microplate. The amount of hemoglobin released was measured at 545 nm by using a ChroMate™ microplate reader. […] HC50 is defined as the concentration of the peptide that caused 50% lysis.
The hemolytic effects of peptides were evaluated (Narayana, et al. (2020) Proc. Natl. Acad. Sci., 117(32):19446-9454). In brief, human red blood cells (UNMC Blood Bank) were washed (3×) and diluted to 2% using the saline solution. Aliquots of 90 μL were mixed with 10 μL of serially diluted peptide solutions. After incubation at 37° C. for 1 hour, plates were centrifuged at 500 g for 5 minutes and aliquots of the supernatant were transferred to a new 96-well microplate to measure the amount of hemoglobin released at 545 nm (relative to 1% Triton® X-100) using a ChroMate® Microplate Reader.

MRSA USA300 = experiment: Membrane permeabilization (propidium iodide); format: cell-based, Staphylococcus aureus; settings: Example 1, 1×MIC
Method: The peptide ladder was prepared as described for the antibacterial assay with 10 μL of solution in a black COSTAR® 96-well plate. PI (MP Biomedicals, Solon, OH) was prepared in the dark and dissolved in dimethylsulfoxide (Thermo Fisher Scientific, NY) to 20 mM. This PI stock solution was further diluted to 1 mM with water, and 2 μL of 1 mM PI was added to each well. Exponential-phase MRSA USA300 was diluted to OD600 0.11 with TSB, and 88 μL was added to each well. The plate was incubated at 37° C. with continuous shaking in a FLUOstar® Omega (BMG LABTECH, NC) microplate reader. The sample was read every 5 minutes for 24 cycles with excitation and emission wavelengths of 584 and 620 nm, respectively.
Bacterial membrane permeation was conducted (Yeaman, et al. (1998) J. Clin. Invest., 101(1):178-87). In brief, the peptide ladder was prepared as described for the antibacterial assay with 10 μL in a black COSTAR 96-well plate. Propidium iodide (PI) (MP Biomedicals, Solon, OH) was prepared in the dark and dissolved in DMSO (Thermo Fisher Scientific, NY) to 20 mM. This PI stock solution was further diluted to 1 mM with water and 2 μL of 1 mM PI was added to each well. Exponential phase MRSA USA300 or P. aeruginosa E411-17 was diluted to OD600 0.11 with tryptic soy broth (TSB) and 88 μL was added to each well. The plate was incubated at 37° C. with continuous shaking in a FLUOstar® Omega (BMG LABTECH, NC) microplate reader. The sample was read every 5 minutes for 24 cycles with excitation and emission wavelengths at 584 nm and 620 nm, respectively.

E. coli E423-17 = experiment: Membrane permeabilization (propidium iodide); format: cell-based, Escherichia coli; settings: Example 1, 1×MIC
[1] = Effect of MHB dilution on antibacterial activity of a panel of antibiotics; format: cell-based; settings: MHB from 100 to 12.5%

T2 sequence (P00791 60-385): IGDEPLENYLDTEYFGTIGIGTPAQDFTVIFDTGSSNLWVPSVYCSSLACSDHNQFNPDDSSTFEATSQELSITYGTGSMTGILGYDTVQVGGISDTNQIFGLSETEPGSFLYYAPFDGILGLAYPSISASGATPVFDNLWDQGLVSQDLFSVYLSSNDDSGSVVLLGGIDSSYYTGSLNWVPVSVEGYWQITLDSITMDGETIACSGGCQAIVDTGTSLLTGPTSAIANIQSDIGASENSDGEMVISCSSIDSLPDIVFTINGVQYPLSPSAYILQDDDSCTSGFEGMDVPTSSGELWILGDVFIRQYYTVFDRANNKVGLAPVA

| Compound | Minimal inhibitory concentration (MIC) S. aureus USA300 (S. aureus USA300 LAC) [µM] | Minimal inhibitory concentration (MIC) S. epidermidis 1457 (S. epidermidis 1457) [µM] | Minimal inhibitory concentration (MIC) K. pneumoniae E406-17 (K. pneumoniae E406-17) [µM] | Minimal inhibitory concentration (MIC) A. baumannii B28-16 (A. baumannii B28-16) [µM] | Minimal inhibitory concentration (MIC) P. aeruginosa E411-17 (P. aeruginosa E411-17) [µM] | Minimal inhibitory concentration (MIC) E. coli E416-17 (E. coli E416-17) [µM] | HC10-based therapeutic index (HC10/MIC) (human red blood cells) | Hemolysis (HC10), 10% hemolytic concentration (human red blood cells) [µM] | Hemolysis (HC50), 50% hemolytic concentration (human red blood cells) [µM] | also measured |
| --- | --- | --- | --- | --- | --- | --- | --- | --- | --- | --- |
| N=C(N)NCCC[C@@H](N)C(=O)N[C@H](CCCNC(=N)N)C(=O)N[C@H](Cc1c[nH]c2ccccc12)C(=O)N[C@H](Cc1c[nH]c2ccccc12)C(=O)N[C@H](CCCNC(=N)N)C(=O)N[C@H](Cc1c[nH]c2ccccc12)C(=O)N[C@H](Cc1c[nH]c2ccccc12)C(=O)N[C@H](CCCNC(=N)N)C(N)=O [LL-37mini (D-form)] (HELM PEPTIDE1{[dR].[dR].[dW].[dW].[dR].[dW].[dW].[dR].[am]}$$$$V2.0) | – | – | – | – | – | – | – | – | – | activity after protease incubation (trypsin): remained active; activity after protease incubation (chymotrypsin): remained active; activity after protease incubation (pepsin): retained antibacterial activity |
| N=C(N)NCCC[C@H](NC(=O)[C@@H](N)CCCCN)C(=O)N[C@@H](Cc1c[nH]c2ccccc12)C(=O)N[C@@H](Cc1ccc(-c2ccccc2)cc1)C(=O)N[C@@H](CCC(N)=O)C(=O)N[C@@H](Cc1c[nH]c2ccccc12)C(=O)N[C@@H](Cc1ccc(-c2ccccc2)cc1)C(=O)N[C@@H](CCCCN)C(N)=O [Bip-KR-8+] (HELM PEPTIDE1{K.R.W.[O=C([C@H](Cc1ccc(-c2ccccc2)cc1)N[*:1])[*:2]].Q.W.[O=C([C@H](Cc1ccc(-c2ccccc2)cc1)N[*:1])[*:2]].K.[am]}$$$$V2.0) | 4 (≈ 5.51 µg/mL) | 4 (≈ 5.51 µg/mL) | >32 | 32 (≈ 44.1 µg/mL) | 16 to 32 | 16 (≈ 22 µg/mL) | ~1 | 15 | > 200 | – |
| CC(C)C[C@H](NC(=O)[C@H](Cc1ccccc1)NC(=O)[C@H](CCCNC(=N)N)NC(=O)[C@H](CCCCN)NC(=O)[C@H](Cc1ccc(-c2ccccc2)cc1)NC(=O)[C@@H](N)CCCNC(=N)N)C(=O)N[C@@H](CCCNC(=N)N)C(=O)N[C@@H](CC(N)=O)C(=O)N[C@@H](Cc1ccc(-c2ccccc2)cc1)C(=O)N[C@H](C(N)=O)C(C)C [Bip-RIK-10+] (HELM PEPTIDE1{R.[O=C([C@H](Cc1ccc(-c2ccccc2)cc1)N[*:1])[*:2]].K.R.F.L.R.N.[O=C([C@H](Cc1ccc(-c2ccccc2)cc1)N[*:1])[*:2]].V.[am]}$$$$V2.0) | 1 (≈ 1.53 µg/mL) | 2 (≈ 3.07 µg/mL) | 2 to 4 | 2 to 4 | 2 (≈ 3.07 µg/mL) | 2 (≈ 3.07 µg/mL) | <4 | – | ~30 | Hemolysis (HC10), 10% hemolytic concentration (human red blood cells; red cells of human): < 8 µM |
| CC(C)C[C@H](N)C(=O)N[C@@H](Cc1c[nH]c2ccccc12)C(=O)NCC(=O)N[C@@H](CCCNC(=N)N)C(=O)N[C@@H](Cc1ccccc1)C(=O)N[C@@H](Cc1ccccc1)C(=O)N[C@@H](CCCNC(=N)N)C(=O)N[C@@H](CCCCN)C(=O)N[C@@H](Cc1ccc(-c2ccccc2)cc1)C(=O)N[C@@H](CCCCN)C(N)=O [Bip-LL-10+] (HELM PEPTIDE1{L.W.G.R.F.F.R.K.[O=C([C@H](Cc1ccc(-c2ccccc2)cc1)N[*:1])[*:2]].K.[am]}$$$$V2.0) | 2 to 4 | 4 (≈ 5.84 µg/mL) | >32 | 8 (≈ 11.7 µg/mL) | 4 (≈ 5.84 µg/mL) | 4 (≈ 5.84 µg/mL) | 25 | 100 | > 200 | – |
| Gentamicin | – | – | – | – | – | – | – | – | – | Antimicrobial activity (MIC) (S. aureus USA300 LAC; 10% serum): 0.5 to 1 µM; Antimicrobial activity (MIC) (S. aureus USA300 LAC; 20% serum): 0.5 µM; Antimicrobial activity (MIC) (S. aureus USA300 LAC; NaCl (150 mM)): 1 µM; Antimicrobial activity (MIC) (S. aureus USA300 LAC; pH 6.3): 1 to 2 µM; Antimicrobial activity (MIC) (S. aureus USA300 LAC; pH 7.2): 0.5 µM; membrane permeabilization (MRSA USA300): no fluorescence increase; membrane permeabilization (E. coli E423-17): did not permeate the E. coli membrane; change in MIC with dilution of MHB [1]: essentially no changes |

Source: US20250101062A1, “ANTIMICROBIAL PEPTIDES” (Board of Regents of the University of Nebraska, priority 2023, published 2025)
